± gives the expanded uncertainty stated by the source.
Conditions: Liquid; Resistive pulse heating

Structure (SMILES)	Critical pressure [kPa]	Critical temperature [K]
OCCOCCOCCOCCOCCOCCO [3,6,9,12,15-pentaoxaheptadecane-1,17-diol]	1820 ± 70	868 ± 13
OCCOCCOCCOCCOCCO [3,6,9,12-tetraoxatetradecane-1,14-diol]	2130 ± 90	842 ± 13
OCCOCCO [diethylene glycol]	4830 ± 190	753 ± 11
OCCOCCOCCO [triethylene glycol]	3570 ± 140	788 ± 12
